Read-outs that look alike come from different tables or passages of the source.
Assay: CelltiterGlo viability cell assay
Assay type: cell-based
Settings: human; for viability at 3 day, 9.5 µM / viability at 3 day, 30 µM / viability at 6 day, 0.01 µM / viability at 6 day, 0.03 µM / viability at 6 day, 0.1 µM: SKMM2 cells (multiple myeloma line); for viability at 3 day, 0.01 µM / viability at 3 day, 0.03 µM: SKMM2 cells
Description: Supplementary Figure 13. […] Viability of
(a) Multiple Myeloma lines and (b) Breast Cancer cell lines following 3 or 6 days treatment with […]
manufacturer’s instructions as described in the Supplementary methods. Data are normalized to DMSO control. N=3 biological replicates, +/- SEM. Source data are provided as a Source Data […]
CelltiterGlo viability cell assay
Cells were seeded in 96 well plates at per-well densities of 10000 (MDA-MB436, ATCC-HTB130), 15000 (8226, kind gift from Rodger Tiedemann, Princess Margaret Cancer Centre), […]
kind gift from Rodger Tiedemann, Princess Margaret Cancer Centre) and 50000 (CAL851, kind gift from Mathieu Lupien, Princess Margaret Cancer Centre) and were treated at increasing concentrations of compounds ranging from 0.01 μM to 30 μM and assessed for proliferation using CelltiterGlo (Promega) following manufacturer’s instructions, as readout on days 3 and 6 as indicated. All cell lines were mycoplasma negative, as determined by MycoAlert™ Mycoplasma Detection Kit(Lonza). […]

[1] = RPMI-8226 multiple myeloma cells, 8226, 3 day, read-out: viability Replicate 1
[2] = RPMI-8226 multiple myeloma cells, 8226, 3 day, read-out: viability Replicate 2
[3] = RPMI-8226 multiple myeloma cells, 8226, 3 day, read-out: viability Replicate 3
[4] = RPMI-8226 multiple myeloma cells, 8226, 3 day, read-out: viability Average
[5] = RPMI-8226 multiple myeloma cells, 8226, 6 day, read-out: viability Average
[6] = RPMI-8226 multiple myeloma cells, 8226, 6 day, read-out: viability Replicate 1
[7] = RPMI-8226 multiple myeloma cells, 8226, 6 day, read-out: viability Replicate 2
[8] = RPMI-8226 multiple myeloma cells, 8226, 6 day, read-out: viability Replicate 3
[9] = SKMM2, 3 day, read-out: viability Average
[10] = SKMM2, 3 day, read-out: viability Replicate 1
[11] = SKMM2, 3 day, read-out: viability Replicate 2
[12] = SKMM2, 3 day, read-out: viability Replicate 3
[13] = SKMM2, 6 day, read-out: viability Average
[14] = SKMM2, 6 day, read-out: viability Replicate 1
[15] = SKMM2, 6 day, read-out: viability Replicate 2
[16] = SKMM2, 6 day, read-out: viability Replicate 3
[17] = SKMM2 multiple myeloma cells, SKMM2, 3 day, read-out: viability Average
[18] = SKMM2 multiple myeloma cells, SKMM2, 3 day, read-out: viability Replicate 1
[19] = SKMM2 multiple myeloma cells, SKMM2, 3 day, read-out: viability Replicate 2
[20] = SKMM2 multiple myeloma cells, SKMM2, 3 day, read-out: viability Replicate 3
[21] = SKMM2 multiple myeloma cells, SKMM2, 6 day, read-out: viability Average
[22] = SKMM2 multiple myeloma cells, SKMM2, 6 day, read-out: viability Replicate 1
[23] = SKMM2 multiple myeloma cells, SKMM2, 6 day, read-out: viability Replicate 2
[24] = SKMM2 multiple myeloma cells, SKMM2, 6 day, read-out: viability Replicate 3

## COc1cc(OC)cc(-c2noc(N3CCN(C)C4(CCN(c5ccnc(C)c5)CC4)C3)n2)c1 [MRK-740]
[1]
  viability at 3 day, 0.3 µM: 101%
  viability at 3 day, 1 µM: 104%
  viability at 3 day, 3 µM: 106%
[2]
  viability at 3 day, 0.3 µM: 101%
  viability at 3 day, 1 µM: 102%
  viability at 3 day, 3 µM: 105%
[3]
  viability at 3 day, 0.3 µM: 104%
  viability at 3 day, 1 µM: 105%
  viability at 3 day, 3 µM: 107%
[4]
  viability at 3 day, 1 µM: 104%
  viability at 3 day, 3 µM: 106%
[5]
  viability at 6 day, 0.3 µM: 98.9%
  viability at 6 day, 1 µM: 97.3%
  viability at 6 day, 3 µM: 92.6%
  viability at 6 day, 9.5 µM: 82.7%
  viability at 6 day, 30 µM: 70.7%
[6]
  viability at 6 day, 0.3 µM: 97.6%
  viability at 6 day, 1 µM: 95%
  viability at 6 day, 3 µM: 89.2%
  viability at 6 day, 9.5 µM: 77%
  viability at 6 day, 30 µM: 82%
[7]
  viability at 6 day, 0.3 µM: 98.6%
  viability at 6 day, 1 µM: 99.7%
  viability at 6 day, 3 µM: 96.8%
  viability at 6 day, 9.5 µM: 85.6%
  viability at 6 day, 30 µM: 56.4%
[8]
  viability at 6 day, 0.3 µM: 101%
  viability at 6 day, 1 µM: 97.2%
  viability at 6 day, 3 µM: 91.7%
  viability at 6 day, 9.5 µM: 85.5%
  viability at 6 day, 30 µM: 73.5%
[9]
  viability at 3 day, 9.5 µM: 93.2%
  viability at 3 day, 30 µM: 67%
  viability at 3 day, 0.01 µM: 101%
  viability at 3 day, 0.03 µM: 101%
[10]
  viability at 3 day, 9.5 µM: 95.7%
  viability at 3 day, 30 µM: 70.4%
  viability at 3 day, 0.01 µM: 101%
  viability at 3 day, 0.03 µM: 99.8%
[11]
  viability at 3 day, 9.5 µM: 89.2%
  viability at 3 day, 30 µM: 59%
  viability at 3 day, 0.01 µM: 99.6%
  viability at 3 day, 0.03 µM: 99.2%
[12]
  viability at 3 day, 9.5 µM: 94.7%
  viability at 3 day, 30 µM: 71.7%
  viability at 3 day, 0.01 µM: 102%
  viability at 3 day, 0.03 µM: 103%
[13]
  viability at 6 day, 0.01 µM: 99.7%
  viability at 6 day, 0.03 µM: 98.1%
  viability at 6 day, 0.1 µM: 96.7%
[14]
  viability at 6 day, 0.01 µM: 96.8%
  viability at 6 day, 0.03 µM: 90.3%
  viability at 6 day, 0.1 µM: 86.5%
[15]
  viability at 6 day, 0.01 µM: 103%
  viability at 6 day, 0.03 µM: 105%
  viability at 6 day, 0.1 µM: 107%
[16]
  viability at 6 day, 0.01 µM: 99.2%
  viability at 6 day, 0.03 µM: 98.8%
  viability at 6 day, 0.1 µM: 96.8%
[17]
  viability at 3 day, 0.1 µM: 103%
  viability at 3 day, 0.3 µM: 101%
  viability at 3 day, 1 µM: 101%
  viability at 3 day, 3 µM: 99.8%
[18]
  viability at 3 day, 0.1 µM: 102%
  viability at 3 day, 0.3 µM: 101%
  viability at 3 day, 1 µM: 99.9%
  viability at 3 day, 3 µM: 97.6%
[19]
  viability at 3 day, 0.1 µM: 100%
  viability at 3 day, 0.3 µM: 98.7%
  viability at 3 day, 1 µM: 99.6%
  viability at 3 day, 3 µM: 98.3%
[20]
  viability at 3 day, 0.1 µM: 105%
  viability at 3 day, 0.3 µM: 103%
  viability at 3 day, 1 µM: 104%
  viability at 3 day, 3 µM: 104%
[21]
  viability at 6 day, 0.3 µM: 98.1%
  viability at 6 day, 1 µM: 96.5%
  viability at 6 day, 3 µM: 96.8%
  viability at 6 day, 9.5 µM: 94.5%
  viability at 6 day, 30 µM: 71.5%
[22]
  viability at 6 day, 0.3 µM: 88.2%
  viability at 6 day, 1 µM: 88%
  viability at 6 day, 3 µM: 85.2%
  viability at 6 day, 9.5 µM: 83.8%
  viability at 6 day, 30 µM: 71.4%
[23]
  viability at 6 day, 0.3 µM: 106%
  viability at 6 day, 1 µM: 105%
  viability at 6 day, 3 µM: 105%
  viability at 6 day, 9.5 µM: 102%
  viability at 6 day, 30 µM: 66%
[24]
  viability at 6 day, 0.3 µM: 100%
  viability at 6 day, 1 µM: 96.3%
  viability at 6 day, 3 µM: 100%
  viability at 6 day, 9.5 µM: 97.7%
  viability at 6 day, 30 µM: 77.2%
